Data on 18 molecules can be found in patent US20250179033A1 (priority 2021, published 2025).

Read-outs that look alike come from different tables or passages of the source. A value given as a limit tells only on which side of the number the result lay.

Series [1] has as its system HIV-1 IIIB A17 variant (Y181C/K103N). The series is described as follows: HIV inhibition assay in TZM-bl cells, A17 variant. The format is cell-based. The following applies: Human immunodeficiency virus 1, IIIB, TZM-bl. On the procedure: (§1) Cells and virus culture: TZM-bl cells (42), HIV-1 IIIB virus (43-45) and HIV-1 IIIB (A17 variant) virus (46) as well are the NNRTI resistant mutants (strain NL4-3) (47) were obtained from the NIH HIV Reagent Program. H9 [derivative of HuT 78]cells (ATCC® HTB176™) were obtained from the American Type Culture Collection (Manassas, Virginia, United States of America). These viruses were grown in H9 cells to high titer, which was tested using a HIV p24 (high sensitivity) The detection kit used was sold under the tradename ALPHALISA® Detection Kit (PerkinElmer, Waltham, Massachusetts, United States of America). The viruses were concentrated using Lenti-X Concentrator (Takara Bio USA, Inc., Mountain View, California, United States of America). Infections of TZM-bl cells with either virus was facilitated with 15 μg/mL DEAE-dextran.
(§2) Compounds were serially diluted starting with 10 mM stocks in DMSO. DMSO concentrations were kept the same for all dilutions used within an assay (either 0.005% or 0.05% depending on highest concentration used). Duplicate 96-well plates were set up with 25 μL compound dilution, 25 μL virus, and 50 μL TZM-bl cells (2×10^5/mL) with DEAE-dextran and incubated at 37° C. 5% CO2 for 48 hr. All compounds were tested in triplicate, with single wells of efavirenz dilutions on each plate. All plates had 3-5 control wells without compound, 1 control well with no cells, and 1 control well with a highly toxic level of DMSO (9%). Inhibition assays were set up in clear tissue-culture treated plates with lysates moved to black assay plates or were set up in black tissue culture-treated plates. Medium was removed and the cells were lysed with Glo Lysis Buffer (Promega, Madison, Wisconsin, United States of America). Luciferase Assay System reagent (Promega, Madison, Wisconsin, United States of America) was added to cells and relative light units (RLU) was measured using an EnSpire instrument (PerkinElmer, Waltham, Massachusetts, United States of America). Toxicity assays were set up in clear tissue culture-treated plates. CellTiter-Blue Cell Viability Assay reagent (Promega) was added to the wells after 46 hr incubation, followed by 2 hr incubation. Sodium lauryl sulfate was added to 1.5% to stop the reaction and the plates were measured for fluorescence (560 nmEx/590 nmEm) using an EnSpire instrument (PerkinElmer, Waltham, Massachusetts, United States of America).

The target of series [2] is T1, HIV I reverse transcriptase (Human immunodeficiency virus type 1 group M subtype B, UniProt P03366).
T1 construct: purchased Roche
The series is described as follows: Reverse transcriptase inhibition assay (Roche kit, ELISA). The format is biochemical. On the procedure:
NNRTI assay methods: Inhibition of HIV I reverse transcriptase was assessed via a kit from Roche (Indianapolis-Marion County, Indiana, United States of America) using the manufacture's protocol (500 μM final reverse transcriptase reaction amount). […] DMSO concentrations were kept the same for all dilutions used within an assay (0.05%). Final compound concentrations ranged from 5000 nM-0.05 nM with 2-fold serial dilutions. 96-well plates were set up with 20 μL compound dilution, 20 μL reverse transcriptase, and 20 μL template/nucleotides and incubated at 37° C. 5% CO2 for 1 hr in a reaction plate. 50 μL of each reaction was then transferred to a streptavidin conjugated 96-well plate and an ELISA assay was run based on manufacture's protocol. All compounds were tested in sextuplicate, with single wells of efavirenz dilutions on each plate.

In a further series the test system is TZM-bl cells. Nature of the series: Toxicity assay in TZM-bl cells. The format is cell-based. The procedure: as §2
Series [3] is described as follows: Toxicity assay in TZM-bl cells. The following applies: human. The format is cell-based. The procedure:
as §2

A further series deals with HIV-1 IIIB (wild-type). The series is described as follows: HIV inhibition assay in TZM-bl cells, wild-type. The format is cell-based. The following applies: Human immunodeficiency virus 1, IIIB, read-out: IC50 (TZM, WT). On the procedure:
as §1, §2

Setting [4] is: read-out: IC50 (TZM, A17), Table 3, TZM-bl, ± SEM, minimum 6 replicates.
[5] abbreviates: Table 3, TZM-bl, ± SEM, minimum 6 replicates.

As for `N#Cc1ccc(Nc2nc(N)n(S(=O)(=O)c3cccc4cc(C#N)ccc34)n2)cc1` [Compound 2, 5-[[5-amino-3-(4-cyanoanilino)-1,2,4-triazol-1-yl]sulfonyl]naphthalene-2-carbonitrile], the IC50 in series [1] (setting [4]) came to 55 ± 4.01 nM; in series [1] (read-out: IC50 (TZM, A17), Table 4, TZM-bl), 24.4 nM; with HIV-1 IIIB (wild-type) (setting [5]), 1.11 ± 0.198 nM; with HIV-1 IIIB (wild-type) (Table 4, TZM-bl), 0.316 nM. A half-maximal effect in series [2] (EC50) was put at 578 nM. Moreover, the “Qualitative Cell Toxicity within inhibition range” value in the series with TZM-bl cells is recorded as “None”. In addition, the “Quantitative Cell Toxicity” value in the series with TZM-bl cells (human, 48 h) stood at 578 nM. The molecule further showed a 50% cytotoxic concentration (CC50) at 48 h in series [3] of 7550 nM.
For the molecule `Cc1c(S(=O)(=O)n2nc(Nc3ccc(C#N)cc3)nc2N)sc2ccc(Cl)cc12` [Compound 48, 4-[[5-amino-1-(5-chloro-3-methyl-benzothiophen-2-yl)sulfonyl-1,2,4-triazol-3-yl]amino]benzonitrile], the IC50 in series [1] (setting [4]) was greater than 1000 nM; in the series on HIV-1 IIIB (wild-type) (setting [5]) it was 14 ± 2.44 nM. The “Qualitative Cell Toxicity within inhibition range” value in the series on TZM-bl cells was “None”.
For `CC(C)(C)c1ccc(S(=O)(=O)n2nc(Nc3ccc(Cl)cc3)nc2N)cc1` [Compound 6, 1-(4-tert-butylphenyl)sulfonyl-N3-(4-chlorophenyl)-1,2,4-triazole-3,5-diamine], in that order: 295 ± 56.5 nM, 70.2 ± 10.5 nM and “None”.
Take `CC(=O)Nc1nc(C)c(S(=O)(=O)n2nc(Nc3ccc(CC#N)cc3)nc2N)s1` [Compound 50, N-[5-[[5-amino-3-[4-(cyanomethyl)anilino]-1,2,4-triazol-1-yl]sulfonyl]-4-methyl-thiazol-2-yl]acetamide]: the IC50 was greater than 1000 nM in series [1] (setting [4]) and 19.4 ± 3.8 nM in the series with HIV-1 IIIB (wild-type) (setting [5]). For the same molecule, the “Qualitative Cell Toxicity within inhibition range” value in the series on TZM-bl cells is on record as “None”.
On the same counts, the results for `Nc1nc(Nc2ccc(Cl)cc2)nn1S(=O)(=O)c1cccc2nonc12` [Compound 37, 1-(2,1,3-benzoxadiazol-4-ylsulfonyl)-N3-(4-chlorophenyl)-1,2,4-triazole-3,5-diamine] are greater than 1000 nM, 10.2 ± 1.46 nM and “None”.
For `Nc1nc(Nc2ccc(Cl)cc2)nn1S(=O)(=O)c1ccc(Br)cc1F` [Compound 7, 1-(4-bromo-2-fluoro-phenyl)sulfonyl-N3-(4-chlorophenyl)-1,2,4-triazole-3,5-diamine], in that order: 562 nM, 19.2 ± 2.83 nM and “None”.
Regarding `Cc1nc(C)c(S(=O)(=O)n2nc(Nc3ccc(C#N)c(Cl)c3)nc2N)s1` [Compound 12, 4-[[5-amino-1-(2,4-dimethylthiazol-5-yl)sulfonyl-1,2,4-triazol-3-yl]amino]-2-chloro-benzonitrile], the half-maximal inhibitory concentration (IC50) was 306 ± 107 nM in series [1] (setting [4]) and 0.879 ± 0.072 nM in the series with HIV-1 IIIB (wild-type). Moreover, the “Qualitative Cell Toxicity within inhibition range” value in the series with TZM-bl cells (Table 3, TZM-bl) is listed as “None”.
For `Cc1nn(C)c(Cl)c1S(=O)(=O)n1nc(Nc2ccc(C#N)c(Cl)c2)nc1N` [Compound 17, 4-[[5-amino-1-(5-chloro-1,3-dimethyl-pyrazol-4-yl)sulfonyl-1,2,4-triazol-3-yl]amino]-2-chloro-benzonitrile], in that order: 905 ± 392 nM, 0.305 ± 0.053 nM and “None”.
On to `N#Cc1ccc(Nc2nc(N)n(S(=O)(=O)c3ccc(C(F)(F)F)nc3)n2)c(Cl)c1` [Compound 45, 4-[[5-amino-1-[[6-(trifluoromethyl)-3-pyridyl]sulfonyl]-1,2,4-triazol-3-yl]amino]-3-chloro-benzonitrile], for which the values for the IC50 (in series [1] (setting [4]); in the series with HIV-1 IIIB (wild-type) (setting [5])) were greater than 1000 nM and 36.1 ± 8.67 nM, respectively. In the series with TZM-bl cells, the “Qualitative Cell Toxicity within inhibition range” value is “None”.
For `N#Cc1ccc2c(S(=O)(=O)n3nc(Nc4c(Cl)cc(Cl)cc4Cl)nc3N)cccc2c1` [Compound 42, 5-[[5-amino-3-(2,4,6-trichloroanilino)-1,2,4-triazol-1-yl]sulfonyl]naphthalene-2-carbonitrile], in that order: greater than 1000 nM, 28.1 ± 6.75 nM and “None”.
With `Nc1nc(Nc2ccc(Cl)cc2)nn1S(=O)(=O)c1cc(Cl)sc1Cl` [Compound 41, N3-(4-chlorophenyl)-1-[(2,5-dichloro-3-thienyl)sulfonyl]-1,2,4-triazole-3,5-diamine], the results for the IC50 (in series [1] (setting [4]); in the series on HIV-1 IIIB (wild-type) (setting [5])) were 3680 ± 10900 nM and 10.1 ± 1.69 nM, respectively. Further, the “Qualitative Cell Toxicity within inhibition range” value in the series with TZM-bl cells is on record as “None”.
For `Cc1cc(C#N)ccc1Nc1nc(N)n(S(=O)(=O)c2cccc3cc(C#N)ccc23)n1` [Compound 4, 5-[[5-amino-3-(4-cyano-2-methyl-anilino)-1,2,4-triazol-1-yl]sulfonyl]naphthalene-2-carbonitrile], in that order: 287 ± 69.5 nM, 13.8 ± 2.64 nM and “None”.
On the same counts, the results for `N#C/C=C/c1ccc(Nc2nc(N)n(S(=O)(=O)c3cccc4cc(C#N)ccc34)n2)cc1` [Compound 10, 5-[[5-amino-3-[4-[(E)-2-cyanovinyl]anilino]-1,2,4-triazol-1-yl]sulfonyl]naphthalene-2-carbonitrile] are 215 ± 57.4 nM, 1.52 ± 0.307 nM and “None”.
Consider `CC(=O)Nc1nc(C)c(S(=O)(=O)n2nc(Nc3cc(Cl)c(Cl)cc3Cl)nc2N)s1` [Compound 44, N-[5-[[5-amino-3-(2,4,5-trichloroanilino)-1,2,4-triazol-1-yl]sulfonyl]-4-methyl-thiazol-2-yl]acetamide], for which the IC50 in series [1] (setting [4]) is greater than 1000 nM; in the series on HIV-1 IIIB (wild-type) (setting [5]) it was 165 ± 121 nM. Also, the “Qualitative Cell Toxicity within inhibition range” value in the series on TZM-bl cells is “None”.
In the case of `Cc1cc(S(=O)(=O)n2nc(Nc3ccc(Cl)nc3)nc2N)c(C)cc1Cl` [Compound 27, 1-(4-chloro-2,5-dimethyl-phenyl)sulfonyl-N3-(6-chloro-3-pyridyl)-1,2,4-triazole-3,5-diamine], the IC50 was greater than 1000 nM in series [1] (setting [4]) and 34.3 ± 9.91 nM with HIV-1 IIIB (wild-type) (setting [5]). The “Qualitative Cell Toxicity within inhibition range” value in the series with TZM-bl cells is given as “None”.
On the same counts, the results for `N#Cc1ccc(Nc2nc(N)n(S(=O)(=O)c3c(Cl)nc4sccn34)n2)cc1` [Compound 8, 4-[[5-amino-1-(6-chloroimidazo[2,1-b]thiazol-5-yl)sulfonyl-1,2,4-triazol-3-yl]amino]-benzonitrile] are 705 ± 1010 nM, 1.77 ± 0.327 nM and “None”.
As for `N#CCc1ccc(Nc2nc(N)n(S(=O)(=O)c3cnc(Cl)nc3)n2)cc1` [Compound 49, 2-[4-[[5-amino-1-(2-chloropyrimidin-5-yl)sulfonyl-1,2,4-triazol-3-yl]amino]phenyl]-acetonitrile], the results for the half-maximal inhibitory concentration (IC50) (in series [1] (setting [4]); in the series on HIV-1 IIIB (wild-type) (setting [5])) were greater than 1000 nM and 108 ± 31.8 nM, respectively. Further, the “Qualitative Cell Toxicity within inhibition range” value in the series with TZM-bl cells is “None”.
On the same counts, the results for `Nc1nc(Nc2ccc(Cl)cc2)nn1S(=O)(=O)c1ccc(Br)s1` [Compound 40, 1-[(5-bromo-2-thienyl)sulfonyl]-N3-(4-chlorophenyl)-1,2,4-triazole-3,5-diamine] are greater than 1000 nM, 15.1 ± 3.12 nM and “None”.
